This is an account of results in patent US11883387B2, “PqsR inverse agonists” (HELMHOLTZ-ZENTRUM FÜR INFEKTIONSFORSCHUNG GMBH, priority 2018, dated 2024).

The structures appear in SMILES notation. Where two headings read alike, the source gives them in different places.

Data set [1] has as its target T1, PqsR (Pseudomonas aeruginosa, UniProt Q9I4X0). On the set-up: host or cells: P. aeruginosa. Particulars: read-out: IC50 in P. aeruginosa reporter gene assay; cited from earlier work. For orientation: A reporter such as luciferase makes a cellular process visible.
The subject of another data set is pyocyanin production. Particulars: in cellulo; read-out: inhibition of virulence factor pyocyanin production IC50; cited from earlier work.
For data set [2], the target named is T1, PqsR. Further details: expressed in transfected cells; host or cells: Escherichia coli DH5α. Particulars: read-out: IC50 in E. coli reporter gene assay; cited from earlier work.
The subject of data set [3] is production of signal molecules HHQ and PQS. Particulars: at 15 μM; cited from earlier work.
A short description of data set [4]: Metabolic stability against human hepatic S9 fraction. It counts as in vitro ADME. Particulars: pooled human liver S9 fraction; 1 μM compound, 1 mg/mL pooled human liver S9, phase I and II cofactors, 37° C.; read-out: half-life (t1/2) towards human hepatic S9 fraction. As for the experimental part: For the evaluation of combined phase I and phase II metabolic stability, the compound (1 μM) was incubated with 1 mg/mL pooled human liver S9 fraction (BD Gentest), 2 mM NADPH regenerating system, 1 mM UDPGA, 10 mM MgCl2 and 0.1 mM PAPS at 37° C. for 0, 5, 15, 30 and 60 min. The metabolic stability of Testosterone (1 μM) and 7-hydroxycoumarin (1 μM) were determined in parallel to confirm the enzymatic activity of the S9 fraction. The incubation was stopped by precipitation of S9 enzymes with 2 volumes of cold acetonitrile containing internal standard (750 nM Diphenhydramine). Samples were stored on ice for 10 min and precipitated protein was removed by centrifugation (10 min, 4° C., 17,000 g). Concentration of the remaining test compound at the different time points was analyzed by LC-MS/MS (TSQ Quantum Access MAX, Thermo Fisher, Dreieich, Germany) and used to determine half-life (t/2).

Data set [5] has as its system eDNA content of P. aeruginosa PA14 biofilm. In words: Biofilm assay, eDNA content (propidium iodine). It counts as cell-based. Particulars: Pseudomonas aeruginosa; PA14, propidium iodine fluorescence; read-out: IC50-value towards eDNA content of the biofilm. As for the experimental part: (§1) Commonly used crystal violet (CV) assay procedures (PMID: 3905855, PMID: 10547784, PMID: 22488868) were adapted for determination of biofilm mass. For the cultivation of biofilm in 96 well plates, the protocol described by Frei et al. (PMID: 22488868) was slightly modified by replacement of medium and Pseudomonas strain used. The experiment was performed using P. aeruginosa PA14 strain and PPGAS medium. CV staining was used to detect compound effects on the overall biofilm biomass. Impact on eDNA was assessed by incubation of biofilm with propidium iodine solution (0.05 mg ml^−1) for 24 h and detection of specific florescence at 620 nm (excitation 544 nm) after a thorough washing step with 18 MΩ H2O. (PMID: 16430688)

For another data set, the system named is HEK293 cells. In words: Cytotoxicity (MTT) toward HEK293. It counts as cell-based. As to conditions: Homo sapiens, 48 h, upper class: or at solubility maximum, read-out: IC50-value towards HEK293. As for the experimental part:
(§2) To obtain information regarding the toxicity of our compounds, their impact on the viability of human cells was investigated. HepG2 and HEK293 cells (2×10^5 per well) were seeded in 24-well, flat-bottomed culture plates. 24 h after seeding the cells the incubation was started by the addition of compounds in a final DMSO concentration of 1%. The living cell mass was determined 48 h after treatment with compounds by adding 0.1 volumes of 3-(4,5-dimethylthiazol-2-yl)-2,5-diphenyltetrazolium bromide (MTT) solution (5 mg per mL sterile PBS) (Sigma, St. Louis, MO) to the wells. After incubating the cells for 30 min at 37° C. (atmosphere containing 5% CO2), MTT crystals were dissolved in a solution containing 10% SDS and 0.5% acetic acid in DMSO. The optical density (OD) of the samples was determined photometrically at 570 nm in a FLUOstar Omega plate reader (BMG labtech, Ortenberg, Germany). To obtain inhibition values for each sample, their ODs were related to those of DMSO controls.

The subject of data set [6] is P. aeruginosa PA14 biofilm. In words: Biofilm assay, crystal violet staining (biofilm mass). It counts as cell-based. As to conditions: Pseudomonas aeruginosa, PA14, PPGAS medium, read-out: IC50-value towards biofilm formation. As for the experimental part: as §1
For data set [7], the system named is P. aeruginosa pyocyanin production. Briefly: Pyocyanin assay. It counts as cell-based, P. aeruginosa PA14. Particulars: Pseudomonas aeruginosa, PA14, 16 h, read-out: IC50-value towards pyocyanin production, PA14 in PPGAS medium, 16 h. In short, it runs like this:
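PA14 in PPGAS medium from OD600 0.02 grown 16 h at 37 °C, 200 rpm, with compounds. Pyocyanin extracted with chloroform, back-extracted into 0.2 M HCl, OD520 normalised to OD600.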

For a further data set, the system named is HepG2 cells. In words: Cytotoxicity (MTT) toward HepG2. Particulars: Homo sapiens, 48 h, upper class: or at solubility maximum, read-out: IC50-value towards HepG2. It counts as cell-based. As for the experimental part: as §2
Data set [8] addresses T1, PqsR. Briefly: E. coli based β-galactosidase reporter gene assay (PqsR inverse agonistic activity). It counts as cell-based. Further details: expressed in transfected cells; host or cells: Escherichia coli DH5α. In a few lines:
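E. coli DH5α carrying pEAL08-2 (tac-driven pqsR with pqsA-lacZ) was grown to OD600 0.2 and incubated with 0.001–10 μM compound plus 50 nM PQS for 2.5 h at 37 °C. β-Galactosidase activity was measured by ONPG conversion in permeabilized cells and normalized between the no-PQS and solvent controls. IC50 came from concentration variation.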

T1 sequence (Q9I4X0 whole entry): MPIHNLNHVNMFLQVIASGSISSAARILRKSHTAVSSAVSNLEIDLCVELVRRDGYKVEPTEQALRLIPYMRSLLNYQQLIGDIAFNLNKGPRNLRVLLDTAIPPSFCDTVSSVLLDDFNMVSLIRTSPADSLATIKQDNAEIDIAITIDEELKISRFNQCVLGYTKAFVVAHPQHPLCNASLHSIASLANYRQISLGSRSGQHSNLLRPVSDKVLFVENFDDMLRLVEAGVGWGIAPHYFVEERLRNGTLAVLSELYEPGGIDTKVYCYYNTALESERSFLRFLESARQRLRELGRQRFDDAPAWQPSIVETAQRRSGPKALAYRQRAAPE

For the molecule `CCCCCCCc1[nH]c2ccc([N+](=O)[O-])cc2c(=O)c1C(N)=O` [2-heptyl-6-nitro-4-oxo-1,4-dihydroquinoline-3-carboxamide], the IC50 (as a rule, the midpoint of a concentration-inhibition curve) was 400 nM at PqsR [1], 2000 nM in the data set on pyocyanin production and 35 nM at PqsR [2]. Moreover, the “reduction of HHQ production” value in data set [3] is 54%. Also, the “reduction of PQS production” value in data set [3] was 37%.
On to `FC(F)(F)c1cc(NCc2cn(-c3ccc(Oc4ccccc4)cc3)nn2)ccn1` [Compound 001, N-((1-(4-Phenoxyphenyl)-1H-1,2,3-triazol-4-yl)methyl)-2-(trifluoromethyl) pyridin-4-amine], for which, in [4], the half-life at 1 μM was 41 to 60 min. Moreover, the half-maximal inhibitory concentration (IC50) in [5] was less than 500 nM; in the data set on HEK293 cells, 25 to 50 µM; in data set [6], no more than 500 nM; in [7], no more than 250 nM; with HepG2 cells it was 25 to 50 µM; at PqsR [8] it was no more than 50 nM.
